Experimental findings from patent US20080214656A1, “Compounds With Diphenoyl-Structure For the Treatment of Immune Diseases” (Neurogenex Co., Ltd., priority 2004, published 2008) are described below.

Test [1] concerns CD4+CD25+ regulatory T cells. Nature of the test: Regulatory T cells in inflamed synovial tissues of CIA mice (FACS, Foxp3 RT-PCR). In kind it is in vivo. To be noted: 20 mg/kg. From the text: A correlation between immune regulation by chebulagic acid and regulatory T cells was studied through estimation of an increase/decrease in the number of regulatory T cells in inflamed synovial tissues of the mice with collagen-induced arthritis set in specific groups in Example 3. The knee joints of the limbs with edema were isolated and the surrounding muscle, patellar ligament and patella were removed to obtain the synovial tissues. Each of the synovial tissues was cut into small pieces and incubated twice in a buffer solution at 37° C. for 30 minutes. The buffer solution includes approximately 1 μg/ml collagenase type VI (Sigma, USA), 2% fetal bovine serum (Gibco, USA) and 1 mM EDTA (Sigma, USA). The cells of the isolated synovial tissues were collected and stained with anti-CD4-FITC antibodies (BD Bioscience, USA) and anti-CD25-PE antibodies (BD Bioscience, USA) for fluorescence-activated cell sorter (FACS) analysis (BD Bioscience, USA).

In test [2] the test system is collagen-induced arthritis. The test can be described thus: Collagen-induced arthritis (CIA), prophylactic dosing model. In kind it is in vivo. To be noted: 10 mg/kg and 20 mg/kg i.p. daily for 3 weeks (day 22 to day 42); DBA/1J mice. As to the method:
(§1) As introduced in an article by Luross and Williams (Immunology, 103(4), pp. 407-416, 2001), a mice model with collagen-induced arthritis (CIA) was used to check whether compounds with a DP or HHDP structure had immune regulatory effects on the chronic inflammation or autoimmune diseases. Male DBA/1J mice, which were 7 to 9 weeks old (SLC Co., Japan), received a subcutaneous injection at the base of tails with approximately 200 μg of bovine type II collagen (CII) in complete Freund's adjuvant (CFA) on days 0 and 21 to induce systemic autoimmune arthritis. […]
For the prophylactic dosing model, the control group and the treatment groups respectively received an intraperitoneal injection of saline solution and 10 mg/kg and 20 mg/kg of chebulagic acid daily for 3 weeks (from day 22 to day 42). A degree of arthritis of the mice was measured for every interval of 3 to 4 days from day 22 to day 63. […] Each of the experimental data was expressed as average±standard error with a P* value of less than 0.05.
(§2) The daily observed arthritis degree of mice was scored for each paw as follows: 0=normal, 1=slight erythema and edema, 2=increased edema with loss of landmarks, 3=severe edema, and 4=severe edema with ankylosis on flexion. […] Each group was then assigned an arthritic score expressed as a mean articular index.

For the next test, the system named is ovalbumin-induced asthma. The test can be described thus: Ovalbumin-induced asthma (OIA), blood IgE level. In kind it is in vivo. To be noted: 20 mg/kg i.p. daily for two weeks; Balb/c mice. The protocol: The immune regulation effects by compounds with a DP structure, preferably a HHDP structure, were estimated through a mice model with ovalbumin-induced asthma (OIA).
Balb/c mice (Samtaco, Korea) received an intraperitoneal injection of ovalbumin on days 0 and 14, and a solution of 1% ovalbumin was sprayed daily for 20 minutes on days 30, 32 and 34. 20 mg/kg of chebulagic acid was daily injected intraperitoneally for two weeks and bloods were taken to estimate the IgE level to check whether chebulagic acid had efficacy for the mice with the hypersensitive inflammatory disease.

The test system of test [3] is collagen-induced arthritis. Nature of the test: Collagen-induced arthritis (CIA), therapeutic dosing model. In kind it is in vivo, mice. Particulars: 20 mg/kg i.p. daily for 3 weeks after arthritis induced (after day 63); within 1 week of therapeutic administration. The protocol:
as §1
For the therapeutic doing model, another experiment was performed separately from the above experiment for the prophylactic dosing model. […] During 3 weeks of the treatment period, a degree of arthritis of the mice was measured for every interval of 3 to 4 days. […] Each of the experimental data was expressed as average±standard error with a P* value of less than 0.05.
as §2

The test system of the next test is Foxp3. Nature of the test: Foxp3 expression in stimulated CD4+ T cells by real-time RT-PCR. In kind it is cell-based, mice. To be noted: approximately 50 μM; mouse spleen CD4+ T cells stimulated by anti-CD3 and anti-CD28.
Another test concerns skin allograft. Nature of the test: Skin allograft between allogenic mice. It counts as in vivo. Particulars: 20 mg/kg i.p. daily; Balb/c skin grafted to C57B1/6 mouse. The protocol:
To verify that compounds with a DP or HHDP structure are capable of suppressing a transplantation rejection response or a graft-versus-host disease directly in vivo, a skin graft was performed between allogenic mice and then chebulagic acid was treated to estimate the level of suppression against the tissue transplantation (Schwoebel et al., Lab Anim., 39(2), pp. 209-214, 2005).
Skin tissues including the derma (e.g., approximately 1 cm×approximately 1 cm) from the back of a Balb/c mouse (Samtaco, Korea) and a C57B1/6 mouse (Samtaco, Korea) were isolated while being anesthetized. The skin tissue of the Balb/c mouse was grafted to the back of the C57B1/6 mouse. After the next day of the skin graft, the treatment group and the control group received the daily intraperitoneal injection of 20 mg/kg of chebulagic acid and saline solution, respectively. It was checked whether the grafted skin tissues in the control group and the treatment group were normal or necrotized.

Test [4] has as its system allogenic human leukocytes. The test can be described thus: Mixed leukocyte reaction (MLR), 3H-TdR incorporation. In kind it is cell-based. To be noted: for cpm (3H-TdR incorporation, lymphocyte proliferation) as % of the control group: approximately 50 μM, 5 days incubation. The protocol:
Leukocytes were separated from peripheral blood of two allogenic volunteers, and then suspended with a concentration of approximately 2×10^6 ml^−1 in IMDM supplemented with 10% fetal bovine serum (Gibco, USA). 100 μl of each cell suspension was added and mixed in the each well of 96-well cell culture plate. Afterwards, saline solution was added to a control group, while chebulagic acid or punicalagin, which was diluted with saline solution by 2-fold, was added to treatment groups. Then, the plates were incubated with 5% CO2 at 37° C. for 5 days. 20 μl (approximately 0.5 μCi) of tritiated thymidine (^3H-TdR) was added to each well and incubated for 8 hours.
After the incubation, the leukocytes at each well were adsorbed on a glass fiber filter by a cell harvester (Cambridge, USA) and dried thereafter. Using Scintillation beta counter (Packard, USA), an amount of ^3H-TdR incorporated within the cells was measured in a cpm value. This measurement indicates the level of lymphocyte proliferation, which-is illustrated in FIG. 2.
In FIG. 2, CsA represents a group with 1 μM of cyclosporin A used as a positive standard specimen. The concentration of each chebulagic acid and punicalagin was approximately 50 μM. Each of the experimental data was expressed as average±standard error with a p* value of less than 0.05.

The mark [5] stands for this setting: synovial tissues of mice with arthritis.

The structures appear in SMILES notation.

Turning to `O=C(O)C[C@@H]1C(=O)O[C@H]2[C@@H]3OC(=O)c4cc(O)c(O)c(O)c4-c4c(cc(O)c(O)c4O)C(=O)OC[C@H]2O[C@@H](OC(=O)c2cc(O)c(O)c(O)c2)[C@@H]3OC(=O)c2cc(O)c(O)c3c2[C@H]1[C@H](O)C(=O)O3` [chebulagic acid], in test [1] (CIA mice), the “increase of the CD4+CD25+ T cells compared with the control group” value was “approximately 100%” and the “increase of the Foxp3 expression compared with the control group” value was “approximately 550%”. In test [1] (setting [5]), the “CD4+CD25+ T cell ratio (%)” value is 5.0 ± 0.4 % and the Foxp3 expression level is recorded as 3.3 ± 0.3. Also, the “onset of collagen-induced arthritis and articular index” value in test [2] was “decreased the onset of collagen-induced arthritis and the articular index”. In addition, the “IgE level in blood as compared with the control group OVA-Control” value in the test with ovalbumin-induced asthma was “approximately 28.5%”. In addition, the arthritis progression result in test [3] is on record as “significant inhibition of the arthritis progression”. The “increased amount of Foxp3 expression compared with the control group” value (“increased amount of Foxp3 expression” for short) in the test on Foxp3 is on record as “approximately 375%”. In addition, the “success ratio and period of maintaining the tissue graft” value with skin allograft is “increased the success ratio and period of maintaining the tissue graft”. Moreover, in test [4] (approximately 50 μM vs 1 μM cyclosporin A), the “suppression of lymphocyte proliferation compared with cyclosporin” value is “as effective as 1 μM cyclosporin”. Moreover, the “cpm (3H-TdR incorporation, lymphocyte proliferation) as % of the control group” value in test [4] is given as “approximately 9.7%”.

For the molecule `O=C(O[C@@H]1O[C@@H]2COC(=O)c3cc(O)c(O)c(O)c3-c3c(cc(O)c(O)c3O)C(=O)O[C@H]([C@H]1O)[C@@H]2O)c1cc(O)c(O)c(O)c1` [corilagin], the “increased amount of Foxp3 expression” value with Foxp3 was “approximately 350%”.

For `O=C1OC2C(O)OC3COC(=O)c4cc(O)c(O)c(O)c4-c4c(O)c(O)c5oc(=O)c6c(c(O)c(O)c7oc(=O)c4c5c76)-c4c(cc(O)c(O)c4O)C(=O)OC3C2OC(=O)c2cc(O)c(O)c(O)c2-c2c1cc(O)c(O)c2O` (centres unmarked) [punicalagin], the “increased amount of Foxp3 expression” value in the test on Foxp3 is on record as “approximately 737%”. For the same molecule, the “cpm (3H-TdR incorporation, lymphocyte proliferation) as % of the control group” value in test [4] was “approximately 34.1%”.
